What was measured:
HT1080 cells = assay: Cellular assay: inhibition of 2-HG production in HT1080 cells (LC-MS, 48 hours); type: cell-based; settings: Homo sapiens, HT-1080, 2-HG in media by LC-MS
Protocol: Cells (HT1080 or U87MG) were grown in T125 flasks in DMEM containing 10% FBS, 1× penicillin/streptomycin and 500 ug/mL G418 (present in U87MG cells only). They were harvested by trypsin and seeded into 96 well white bottom plates at a density of 5000 cell/well in 100 ul/well in DMEM with 10% FBS. No cells were placed in columns 1 and 12. Cells were incubated overnight at 37° C. in 5% CO2. The next day test compounds were made up at 2× the final concentration and 100 ul were added to each cell well. The final concentration of DMSO was 0.2% and the DMSO control wells were plated in row G. The plates were then placed in the incubator for 48 hours. At 48 hours, 100 ul of media was removed from each well and analyzed by LC-MS for 2-HG concentrations. The cell plate was placed back in the incubator for another 24 hours. At 72 hours post compound addition, 10 mL/plate of Promega Cell Titer Glo reagent was thawed and mixed. The cell plate was removed from the incubator and allowed to equilibrate to room temperature. Then 100 ul of Promega Cell Titer Glo reagent was added to each well of media. The cell plate was then placed on an orbital shaker for 10 minutes and then allowed to sit at room temperature for 20 minutes. The plate was then read for luminescence with an integration time of 500 ms.

IDH1 R132H = IDH1 R132H (Homo sapiens, UniProt O75874, R132H); assay: In vitro assay for IDH1 R132H inhibitors (NADPH/aKG, resazurin detection); type: biochemical; settings: Table 4B; 0.2 μg/ml IDH1 R132H, 50 minutes at room temperature; read-out: IC50, IDH1 R132H Inhibition
How it was run: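 Buffer: 150 mM NaCl, 10 mM MgCl2, 20 mM Tris pH 7.5, 0.03% BSA. Compound was added to substrate mix (8 uM NADPH, 2 mM aKG), then enzyme mix (0.2 μg/ml IDH1 R132H), and incubated 50 min at room temperature. Remaining NADPH was read by resazurin (30 μM in detection mix) to resorufin fluorescence after 5 min, Ex544/Em590.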

U87MG cells = assay: Cellular assay: inhibition of 2-HG production in U87MG cells (LC-MS, 48 hours); type: cell-based; settings: Homo sapiens, U-87 MG, 2-HG in media by LC-MS
How it was run: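 HT1080 or U87MG cells (5000/well, DMEM + 10% FBS) seeded overnight, then exposed to compound (0.2% DMSO final) for 48 h; medium 2-HG measured by LC-MS. Viability read by CellTiter-Glo luminescence at 72 h.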

Sequence of IDH1 R132H (O75874 whole entry R132H): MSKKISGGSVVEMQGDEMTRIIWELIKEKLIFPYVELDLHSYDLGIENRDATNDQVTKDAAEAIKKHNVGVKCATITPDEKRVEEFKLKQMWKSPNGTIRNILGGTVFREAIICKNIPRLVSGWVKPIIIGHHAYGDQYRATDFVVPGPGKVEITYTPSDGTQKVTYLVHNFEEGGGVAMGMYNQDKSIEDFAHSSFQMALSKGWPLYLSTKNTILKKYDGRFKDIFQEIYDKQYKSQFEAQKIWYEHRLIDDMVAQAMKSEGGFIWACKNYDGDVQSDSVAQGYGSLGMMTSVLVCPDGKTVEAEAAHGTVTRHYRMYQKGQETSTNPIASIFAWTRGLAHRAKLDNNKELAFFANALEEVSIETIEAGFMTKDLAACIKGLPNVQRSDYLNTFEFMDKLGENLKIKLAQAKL

Row | SMILES | IC50 (HT1080 cells) [nM] | IC50 (IDH1 R132H) [nM] | IC50 (U87MG cells) [nM]
1 | Cc1ccccc1C(C(=O)NC1CCCCC1)N(C(=O)CNc1ccc(C(F)(F)F)nc1)c1cccc(F)c1 (stereo not drawn) [Compound 279] | 1000 to 5000 | 100 to 1000 | > 5000
2 | Cc1nccn1CC(=O)N(c1cccc(F)c1)[C@H](C(=O)NC1CCCCC1)c1ccccc1 [Compound 239] | 250 to 1000 | 100 to 1000 | ≤ 250
3 | Cc1ccccc1C(C(=O)NC1CCCCC1)N(Cc1cccs1)C(=O)Oc1ccccc1 (stereo not drawn) [Compound 387] | 1000 to 5000 | 1000 to 10000 | > 5000
4 | Cc1ccccc1C(C(=O)NC1CCCCC1)N(C(=O)Cn1ccnc1C)c1cccc(N2CCN(C(=O)OC(C)(C)C)CC2)c1 (stereo not drawn) [Compound 232] | 1000 to 5000 | 100 to 1000 | ≤ 250
5 | Cc1ccccc1C(C(=O)NC1CCCCC1)N(Cc1cccs1)C(=O)Cn1ccnc1 (stereo not drawn) [Compound 204, N-cyclohexyl-2-[(2-imidazol-1-yl-acetyl)-thiophen-2-ylmethyl-amino]-2-o-tolyl-acetamide] | 1000 to 5000 | 100 to 1000 | 250 to 1000
6 | Cc1ccccc1C(C(=O)NC1CC(F)(F)C1)N(C(=O)Cn1ccnc1C)c1cccc(F)c1 (stereo not drawn) [Compound 380] | 1000 to 5000 | 100 to 1000 | ≤ 250
7 | Cc1ccccc1C(C(=O)NC1CC2CC2C1)N(C(=O)Cn1ccnc1C)c1cccc(F)c1 (stereo not drawn) [Compound 327] | 1000 to 5000 | 100 to 1000 | ≤ 250
8 | Cc1ccccc1C(C(=O)NC1CCCCC1)N(Cc1cccs1)C(=O)Cc1c[nH]c2ncccc12 (stereo not drawn) [Compound 213] | 250 to 1000 | ≤ 100 | 250 to 1000
9 | Cc1ccccc1C(C(=O)NC1CC2CC2C1)N(C(=O)Cn1ccc2ncccc21)c1cccc(F)c1 (stereo not drawn) [Compound 325] | 1000 to 5000 | 100 to 1000 | 1000 to 5000
10 | O=C(NC1CCCCC1)C(c1ccccc1Cl)N(C(=O)Cc1cscn1)c1cccc(F)c1 (stereo not drawn) [Compound 307] | 250 to 1000 | ≤ 100 | 250 to 1000
11 | Cc1ccccc1C(C(=O)NC1CCCCC1)N(C(=O)CNc1ccc(-c2ncon2)cc1)c1cccc(F)c1 (stereo not drawn) [Compound 291] | ≤ 250 | ≤ 100 | 250 to 1000
12 | [2H]C1([2H])C([2H])([2H])C([2H])([2H])C([2H])(NC(=O)C(c2ccccc2C)N(C(=O)COc2ccccn2)c2cccc(F)c2)C([2H])([2H])C1([2H])[2H] (stereo not drawn) [Compound 351] | ≤ 250 | ≤ 100 | ≤ 250
13 | O=C(NC1CCCCC1)C(c1ccccc1F)N(C(=O)Cn1cnc2ccccc21)c1cccc(F)c1 (stereo not drawn) [Compound 321] | ≤ 250 | ≤ 100 | ≤ 250
14 | O=C(NC1CCCCC1)C(c1ccccc1F)N(C(=O)Cc1cscn1)c1cccc(F)c1 (stereo not drawn) [Compound 320] | 250 to 1000 | ≤ 100 | 250 to 1000
15 | Cc1ccccc1C(C(=O)NC1CCCCC1)N(C(=O)Cc1ccc(OC(=O)N(C)C)cc1)c1cccc(F)c1 (stereo not drawn) [Compound 263] | ≤ 250 | 100 to 1000 | 250 to 1000
16 | Cc1ccccc1C(C(=O)NC1CCCCC1)N(C(=O)Cc1c[nH]c2cnccc12)c1cccc(F)c1 (stereo not drawn) [Compound 276] | ≤ 250 | ≤ 100 | ≤ 250
17 | Cc1ccccc1C(C(=O)NC1CCC(F)(F)CC1)N(C(=O)CNc1ncccc1F)c1cccc(F)c1 (stereo not drawn) [Compound 342] | 250 to 1000 | 100 to 1000 | 250 to 1000
18 | Cc1ccccc1C(C(=O)NC1CC(F)(F)C1)N(C(=O)CNc1cccnc1F)c1cccc(F)c1 (stereo not drawn) [Compound 381] | ≤ 250 | ≤ 100 | ≤ 250
19 | Cc1ccccc1C(C(=O)NC1CCCCC1)N(C(=O)Cc1n[nH]c2ccccc12)c1cccc(F)c1 (stereo not drawn) [Compound 289] | ≤ 250 | ≤ 100 | ≤ 250
20 | Cc1ccccc1C(C(=O)NC1CCCCC1)N(C(=O)CNc1cccc(C#N)c1)c1cccc(F)c1 (stereo not drawn) [Compound 265] | ≤ 250 | ≤ 100 | 250 to 1000

The remaining lines, values ahead:

Row | IC50 (HT1080 cells) [nM] | IC50 (IDH1 R132H) [nM] | IC50 (U87MG cells) [nM] | SMILES
21 | 1000 to 5000 | ≤ 100 | 1000 to 5000 | COc1ccc(NCC(=O)N(c2cccc(F)c2)C(C(=O)NC2CCCCC2)c2ccccc2C)cc1 (stereo not drawn) [Compound 210]
22 | 250 to 1000 | 100 to 1000 | 250 to 1000 | Cc1ccccc1C(C(=O)NC1CCCCC1)N(C(=O)C(C)c1c[nH]c2ccccc12)c1cccc(F)c1 (stereo not drawn) [Compound 283]
23 | 1000 to 5000 | 100 to 1000 | 1000 to 5000 | Cc1ccccc1C(C(=O)NC1CCCCC1)N(C(=O)CNCCc1ccccn1)c1cccc(F)c1 (stereo not drawn) [Compound 192]
24 | ≤ 250 | ≤ 100 | ≤ 250 | CC(=O)Oc1ccc(CC(=O)N(c2cccc(F)c2)C(C(=O)NC2CCCCC2)c2ccccc2C)cc1 (stereo not drawn) [Compound 212]
25 | ≤ 250 | ≤ 100 | 250 to 1000 | Cc1ccccc1C(C(=O)NC1CCCCC1)N(C(=O)CNc1ccccn1)c1cccc(F)c1 (stereo not drawn) [Compound 316]
26 | 250 to 1000 | ≤ 100 | 1000 to 5000 | Cc1ccccc1C(C(=O)NC1CCCCC1)N(C(=O)Cn1ccc(F)cc1=N)c1cccc(F)c1 (stereo not drawn) [Compound 240]
27 | 250 to 1000 | 100 to 1000 | 1000 to 5000 | Cc1cnn(CC(=O)N(c2cccc(F)c2)C(C(=O)NC2CCCCC2)c2ccccc2C)c1 (stereo not drawn) [Compound 309]
28 | 1000 to 5000 | 100 to 1000 | ≤ 250 | Cc1nccn1CC(=O)N(c1cccc(F)c1)C(C(=O)NC1CCCCC1)c1ccccc1F (stereo not drawn) [Compound 312]
29 | ≤ 250 | ≤ 100 | 250 to 1000 | Cc1ccccc1C(C(=O)NC1CCCCC1)N(C(=O)COc1ccccn1)c1cccc(F)c1 (stereo not drawn) [Compound 198]
30 | 250 to 1000 | 100 to 1000 | 1000 to 5000 | Cc1ccccc1C(C(=O)NC1CCCCC1)N(C(=O)CN1CCOCC1)c1cccc(F)c1 (stereo not drawn) [Compound 134]
31 | 250 to 1000 | 100 to 1000 | 1000 to 5000 | COC(=O)N1CCCC[C@@H]1C(=O)N(c1cccc(F)c1)[C@H](C(=O)NC1CCCCC1)c1ccccc1C [Compound 335]
32 | 1000 to 5000 | 100 to 1000 | 250 to 1000 | CC(=O)N1CCC[C@H]1C(=O)N(c1cccc(F)c1)[C@H](C(=O)NC1CCCCC1)c1ccccc1C [Compound 370]
33 | 1000 to 5000 | 100 to 1000 | 250 to 1000 | Cc1ccccc1C(C(=O)NC1CCCCC1)N(C(=O)Cn1cncn1)c1cccc(F)c1 (stereo not drawn) [Compound 294]
34 | ≤ 250 | 100 to 1000 | 250 to 1000 | Cc1ccccc1C(C(=O)NC1CCCCC1)N(C(=O)COc1cc(C(F)(F)F)ccn1)c1cccc(F)c1 (stereo not drawn) [Compound 303]
35 | 250 to 1000 | ≤ 100 | 1000 to 5000 | Cc1ccccc1C(C(=O)NC1CCCCC1)N(C(=O)Cc1cccnc1)c1cccc(F)c1 (stereo not drawn) [Compound 288]
36 | ≤ 250 | 100 to 1000 | 250 to 1000 | Cc1ccccc1C(C(=O)NC1CCCCC1)N(C(=O)CN1Cc2cccnc2C1)c1cccc(F)c1 (stereo not drawn) [Compound 209]
37 | 250 to 1000 | 100 to 1000 | 1000 to 5000 | Cc1ccccc1C(C(=O)NC1CCCCC1)N(C(=O)Cn1cccn1)c1cccc(F)c1 (stereo not drawn) [Compound 317]
38 | 250 to 1000 | 100 to 1000 | 1000 to 5000 | Cc1ccccc1[C@@H](C(=O)NC1CCCCC1)N(C(=O)[C@H]1CCCCN1C(=O)OC(C)C)c1cccc(F)c1 [Compound 338]
39 | ≤ 250 | ≤ 100 | ≤ 250 | COC(=O)N1CCC[C@H]1C(=O)N(c1cccc(F)c1)[C@H](C(=O)NC1CCCCC1)c1ccccc1C [Compound 356]
40 | 250 to 1000 | 100 to 1000 | 250 to 1000 | Cc1ccccc1C(C(=O)NC1CCCCC1)N(C(=O)COc1cccnn1)c1cccc(F)c1 (stereo not drawn) [Compound 273]
41 | 1000 to 5000 | 100 to 1000 | 1000 to 5000 | Cc1ccccc1C(C(=O)NC1CCCCC1)N(C(=O)CNCc1cnccn1)c1cccc(F)c1 (stereo not drawn) [Compound 254]
42 | ≤ 250 | ≤ 100 | ≤ 250 | COC(=O)N(C)CC(=O)N(c1cccc(F)c1)C(C(=O)NC1CCCCC1)c1ccccc1C (stereo not drawn) [Compound 341]
43 | 250 to 1000 | ≤ 100 | 250 to 1000 | COc1ccccc1NCC(=O)N(c1cccc(F)c1)C(C(=O)NC1CCCCC1)c1ccccc1C (stereo not drawn) [Compound 218]
44 | ≤ 250 | ≤ 100 | 250 to 1000 | Cc1ccccc1C(C(=O)NC1CCCCC1)N(C(=O)CN1CCCc2ccccc21)c1cccc(F)c1 (stereo not drawn) [Compound 160]

— patent US20130184222A1, “[…] ACTIVE COMPOSITIONS AND THEIR METHODS OF USE” (AGIOS PHARMACEUTICALS, INC, priority 2010, published 2013)
